From ChEMBL document CHEMBL1156950, “Synthesis and biological evaluation of 4-anilinoquinolines as potent inhibitors of epidermal growth factor receptor” (J Med Chem, 2010)

Columns and labels:
[1] = target: Interleukin-1 receptor-associated kinase 4 (Homo sapiens) (UniProt Q9NWZ3); assay: Inhibition of IRAK4 at 10 uM assessed as residual activity by [33P]ATP radioactive filter binding assay relative to control
[2] = target: Calcium/calmodulin-dependent protein kinase kinase 2 (Homo sapiens) (UniProt Q96RR4); assay: Inhibition of CAMKKbeta at 10 uM assessed as residual activity by [33P]ATP radioactive filter binding assay relative to control
[3] = target: Serine/threonine-protein kinase pim-2 (Homo sapiens) (UniProt Q9P1W9); assay: Inhibition of PIM2 at 10 uM assessed as residual activity by [33P]ATP radioactive filter binding assay relative to control
[4] = target: SRSF protein kinase 1 (Homo sapiens) (UniProt Q96SB4); assay: Inhibition of SRPK1 at 10 uM assessed as residual activity by [33P]ATP radioactive filter binding assay relative to control
[5] = target: Mitogen-activated protein kinase 13 (Homo sapiens) (UniProt O15264); assay: Inhibition of p38delta at 10 uM assessed as residual activity by [33P]ATP radioactive filter binding assay relative to control
[6] = target: Serine/threonine-protein kinase PAK 4 (Homo sapiens) (UniProt O96013); assay: Inhibition of PAK4 at 10 uM assessed as residual activity by [33P]ATP radioactive filter binding assay relative to control
[7] = target: Mitogen-activated protein kinase kinase kinase 9 (Homo sapiens) (UniProt P80192); assay: Inhibition of MLK1 at 10 uM assessed as residual activity by [33P]ATP radioactive filter binding assay relative to control
[8] = target: Serine/threonine-protein kinase PAK 6 (Homo sapiens) (UniProt Q9NQU5); assay: Inhibition of PAK6 at 10 uM assessed as residual activity by [33P]ATP radioactive filter binding assay relative to control
[9] = Inhibition of AMPK at 10 uM assessed as residual activity by [33P]ATP radioactive filter binding assay relative to control
[10] = target: Serine/threonine-protein kinase Chk1 (Homo sapiens) (UniProt O14757); assay: Inhibition of CHK1 at 10 uM assessed as residual activity by [33P]ATP radioactive filter binding assay relative to control
[11] = target: MAP kinase-activated protein kinase 5 (Homo sapiens) (UniProt Q8IW41); assay: Inhibition of PRAK at 10 uM assessed as residual activity by [33P]ATP radioactive filter binding assay relative to control
[12] = target: Dual specificity protein kinase TTK (Homo sapiens) (UniProt P33981); assay: Inhibition of TTK at 10 uM assessed as residual activity by [33P]ATP radioactive filter binding assay relative to control
[13] = target: Protein kinase C zeta type (Homo sapiens) (UniProt Q05513); assay: Inhibition of PKCzeta at 10 uM assessed as residual activity by [33P]ATP radioactive filter binding assay relative to control
[14] = target: Ribosomal protein S6 kinase alpha-1 (Homo sapiens) (UniProt Q15418); assay: Inhibition of RSK1 at 10 uM assessed as residual activity by [33P]ATP radioactive filter binding assay relative to control
[15] = target: Glycogen synthase kinase-3 beta (Homo sapiens) (UniProt P49841); assay: Inhibition of GSK3-beta at 10 uM assessed as residual activity by [33P]ATP radioactive filter binding assay relative to control
[16] = target: Serine/threonine-protein kinase STK11 (Homo sapiens) (UniProt Q15831); assay: Inhibition of LKB1 at 10 uM assessed as residual activity by [33P]ATP radioactive filter binding assay relative to control
[17] = target: Serine/threonine-protein kinase Nek2 (Homo sapiens) (UniProt P51955); assay: Inhibition of NEK2a at 10 uM assessed as residual activity by [33P]ATP radioactive filter binding assay relative to control
[18] = target: Homeodomain-interacting protein kinase 3 (Homo sapiens) (UniProt Q9H422); assay: Inhibition of HIPK3 at 10 uM assessed as residual activity by [33P]ATP radioactive filter binding assay relative to control
[19] = target: RAC-alpha serine/threonine-protein kinase (Homo sapiens) (UniProt P31749); assay: Inhibition of PKBalpha at 10 uM assessed as residual activity by [33P]ATP radioactive filter binding assay relative to control
[20] = target: Receptor-interacting serine/threonine-protein kinase 2 (Homo sapiens) (UniProt O43353); assay: Inhibition of RIPK2 at 10 uM assessed as residual activity by [33P]ATP radioactive filter binding assay relative to control
[21] = target: Serine/threonine-protein kinase D1 (Homo sapiens) (UniProt Q15139); assay: Inhibition of PKD1 at 10 uM assessed as residual activity by [33P]ATP radioactive filter binding assay relative to control
[22] = target: Maternal embryonic leucine zipper kinase (Homo sapiens) (UniProt Q14680); assay: Inhibition of MELK at 10 uM assessed as residual activity by [33P]ATP radioactive filter binding assay relative to control
[23] = target: Ephrin type-A receptor 2 (Homo sapiens) (UniProt P29317); assay: Inhibition of EPHA2 at 10 uM assessed as residual activity by [33P]ATP radioactive filter binding assay relative to control
[24] = target: Mitogen-activated protein kinase 14 (Homo sapiens) (UniProt Q16539); assay: Inhibition of p38alpha at 10 uM assessed as residual activity by [33P]ATP radioactive filter binding assay relative to control
[25] = target: Dual specificity tyrosine-phosphorylation-regulated kinase 3 (Homo sapiens) (UniProt O43781); assay: Inhibition of DYRK3 at 10 uM assessed as residual activity by [33P]ATP radioactive filter binding assay relative to control
[26] = target: Serine/threonine-protein kinase BRSK2 (Homo sapiens) (UniProt Q8IWQ3); assay: Inhibition of BRSK2 at 10 uM assessed as residual activity by [33P]ATP radioactive filter binding assay relative to control
[27] = target: Mitogen-activated protein kinase 8 (Homo sapiens) (UniProt P45983); assay: Inhibition of JNK1 at 10 uM assessed as residual activity by [33P]ATP radioactive filter binding assay relative to control
[28] = target: Mitogen-activated protein kinase 9 (Homo sapiens) (UniProt P45984); assay: Inhibition of JNK2 at 10 uM assessed as residual activity by [33P]ATP radioactive filter binding assay relative to control
[29] = target: RAC-beta serine/threonine-protein kinase (Homo sapiens) (UniProt P31751); assay: Inhibition of PKBbeta at 10 uM assessed as residual activity by [33P]ATP radioactive filter binding assay relative to control
[30] = target: Mitogen-activated protein kinase 10 (Homo sapiens) (UniProt P53779); assay: Inhibition of JNK3 at 10 uM assessed as residual activity by [33P]ATP radioactive filter binding assay relative to control
[31] = cells; settings: Mus musculus, BaF3, 96 h
Description: Growth inhibition of mouse BA/F3 cells expressing EGFR Del1 mutant after 96 hrs by cell titer-glo assay

[32] = cells; settings: Mus musculus, BaF3, 96 h; remark: listed apart in the source
Description: Growth inhibition of mouse BA/F3 cells expressing EGFR Del3 mutant after 96 hrs by cell titer-glo assay

[33] = cells; settings: Mus musculus, BaF3, 96 h; remark: listed apart in the source
Description: Growth inhibition of mouse BA/F3 cells expressing EGFR Del5 mutant after 96 hrs by cell titer-glo assay

[34] = cells; settings: Mus musculus, BaF3, 96 h; remark: listed apart in the source

Dual specificity protein kinase TTK (Homo sapiens), sequence (P33981 whole entry): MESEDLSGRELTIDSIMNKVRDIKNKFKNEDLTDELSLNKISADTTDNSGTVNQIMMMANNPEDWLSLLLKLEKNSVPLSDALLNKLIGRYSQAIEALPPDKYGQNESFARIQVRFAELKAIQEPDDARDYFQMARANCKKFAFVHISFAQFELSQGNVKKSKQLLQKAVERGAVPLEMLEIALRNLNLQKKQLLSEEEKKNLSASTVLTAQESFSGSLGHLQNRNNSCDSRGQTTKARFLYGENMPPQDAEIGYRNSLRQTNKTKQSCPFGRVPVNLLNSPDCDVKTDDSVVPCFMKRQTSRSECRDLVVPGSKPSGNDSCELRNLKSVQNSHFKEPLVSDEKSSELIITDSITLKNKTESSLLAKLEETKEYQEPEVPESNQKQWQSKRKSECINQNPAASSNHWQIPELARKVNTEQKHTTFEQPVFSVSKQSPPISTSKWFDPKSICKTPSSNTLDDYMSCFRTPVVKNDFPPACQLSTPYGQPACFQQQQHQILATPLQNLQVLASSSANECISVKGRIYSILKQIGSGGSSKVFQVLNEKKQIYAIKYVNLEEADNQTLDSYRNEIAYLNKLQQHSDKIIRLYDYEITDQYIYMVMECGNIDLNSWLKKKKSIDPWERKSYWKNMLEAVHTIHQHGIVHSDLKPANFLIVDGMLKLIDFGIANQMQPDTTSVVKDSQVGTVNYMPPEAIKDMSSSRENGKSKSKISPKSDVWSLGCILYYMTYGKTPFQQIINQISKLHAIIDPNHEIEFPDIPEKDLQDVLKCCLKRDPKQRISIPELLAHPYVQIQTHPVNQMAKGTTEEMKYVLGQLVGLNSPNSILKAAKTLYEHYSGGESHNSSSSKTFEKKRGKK
Receptor-interacting serine/threonine-protein kinase 2 (Homo sapiens), sequence (O43353 whole entry): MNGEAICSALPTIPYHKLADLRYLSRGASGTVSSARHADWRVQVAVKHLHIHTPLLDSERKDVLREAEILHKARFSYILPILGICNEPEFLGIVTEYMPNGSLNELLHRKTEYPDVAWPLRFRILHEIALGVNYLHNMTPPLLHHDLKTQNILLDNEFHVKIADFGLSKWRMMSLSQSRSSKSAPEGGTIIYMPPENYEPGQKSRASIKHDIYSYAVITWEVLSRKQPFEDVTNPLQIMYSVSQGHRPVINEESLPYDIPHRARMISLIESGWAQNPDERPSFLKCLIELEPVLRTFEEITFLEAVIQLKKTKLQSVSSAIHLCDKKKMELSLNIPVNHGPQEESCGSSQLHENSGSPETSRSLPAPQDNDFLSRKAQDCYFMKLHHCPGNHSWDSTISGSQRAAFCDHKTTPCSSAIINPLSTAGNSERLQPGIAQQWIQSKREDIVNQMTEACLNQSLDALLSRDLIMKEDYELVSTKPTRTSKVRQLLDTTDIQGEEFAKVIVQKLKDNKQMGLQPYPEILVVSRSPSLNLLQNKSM
Glycogen synthase kinase-3 beta (Homo sapiens), sequence (P49841 whole entry, looked up): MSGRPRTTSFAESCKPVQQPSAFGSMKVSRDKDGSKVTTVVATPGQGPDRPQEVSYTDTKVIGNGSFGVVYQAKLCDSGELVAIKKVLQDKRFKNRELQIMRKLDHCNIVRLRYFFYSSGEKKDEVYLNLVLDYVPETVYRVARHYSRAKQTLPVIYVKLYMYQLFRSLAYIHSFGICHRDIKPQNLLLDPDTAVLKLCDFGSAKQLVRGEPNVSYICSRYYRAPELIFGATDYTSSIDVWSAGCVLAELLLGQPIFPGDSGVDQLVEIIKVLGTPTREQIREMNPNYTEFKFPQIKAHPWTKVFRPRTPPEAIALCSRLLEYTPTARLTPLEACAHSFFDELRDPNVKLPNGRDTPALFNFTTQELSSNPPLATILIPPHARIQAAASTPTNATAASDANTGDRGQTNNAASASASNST
Homeodomain-interacting protein kinase 3 (Homo sapiens), sequence (Q9H422 whole entry, looked up): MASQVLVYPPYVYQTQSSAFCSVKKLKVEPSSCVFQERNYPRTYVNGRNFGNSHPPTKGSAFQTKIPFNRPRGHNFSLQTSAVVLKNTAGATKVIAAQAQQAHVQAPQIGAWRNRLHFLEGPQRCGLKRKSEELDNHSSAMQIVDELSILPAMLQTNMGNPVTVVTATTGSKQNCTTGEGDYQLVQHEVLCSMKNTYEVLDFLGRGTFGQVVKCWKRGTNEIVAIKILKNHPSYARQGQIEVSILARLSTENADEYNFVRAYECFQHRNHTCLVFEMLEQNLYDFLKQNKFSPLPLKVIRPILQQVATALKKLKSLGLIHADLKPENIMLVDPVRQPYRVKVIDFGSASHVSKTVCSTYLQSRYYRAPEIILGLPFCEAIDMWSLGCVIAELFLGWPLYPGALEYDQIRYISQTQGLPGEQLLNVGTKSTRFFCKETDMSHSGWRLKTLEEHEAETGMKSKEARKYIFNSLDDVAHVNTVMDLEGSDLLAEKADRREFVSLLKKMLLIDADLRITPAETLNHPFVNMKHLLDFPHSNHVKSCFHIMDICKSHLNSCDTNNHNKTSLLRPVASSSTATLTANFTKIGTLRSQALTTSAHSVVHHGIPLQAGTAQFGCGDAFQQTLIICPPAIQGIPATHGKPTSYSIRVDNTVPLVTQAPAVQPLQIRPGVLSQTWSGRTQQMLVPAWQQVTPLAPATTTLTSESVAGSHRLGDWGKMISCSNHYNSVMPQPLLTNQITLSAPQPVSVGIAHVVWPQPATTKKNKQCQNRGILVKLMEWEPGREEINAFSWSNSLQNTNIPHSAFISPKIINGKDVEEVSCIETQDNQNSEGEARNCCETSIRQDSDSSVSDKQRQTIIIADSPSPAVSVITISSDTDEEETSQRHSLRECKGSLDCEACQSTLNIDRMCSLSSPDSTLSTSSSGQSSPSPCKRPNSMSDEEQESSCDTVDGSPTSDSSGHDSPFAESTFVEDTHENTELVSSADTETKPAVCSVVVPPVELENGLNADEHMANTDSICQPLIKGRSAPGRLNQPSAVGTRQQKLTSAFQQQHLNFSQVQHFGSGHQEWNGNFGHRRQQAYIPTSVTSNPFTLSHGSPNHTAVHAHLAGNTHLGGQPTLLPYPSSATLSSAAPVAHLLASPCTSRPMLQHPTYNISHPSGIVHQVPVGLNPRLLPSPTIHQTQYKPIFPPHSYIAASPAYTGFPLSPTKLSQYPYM
Serine/threonine-protein kinase PAK 4 (Homo sapiens), sequence (O96013 whole entry, looked up): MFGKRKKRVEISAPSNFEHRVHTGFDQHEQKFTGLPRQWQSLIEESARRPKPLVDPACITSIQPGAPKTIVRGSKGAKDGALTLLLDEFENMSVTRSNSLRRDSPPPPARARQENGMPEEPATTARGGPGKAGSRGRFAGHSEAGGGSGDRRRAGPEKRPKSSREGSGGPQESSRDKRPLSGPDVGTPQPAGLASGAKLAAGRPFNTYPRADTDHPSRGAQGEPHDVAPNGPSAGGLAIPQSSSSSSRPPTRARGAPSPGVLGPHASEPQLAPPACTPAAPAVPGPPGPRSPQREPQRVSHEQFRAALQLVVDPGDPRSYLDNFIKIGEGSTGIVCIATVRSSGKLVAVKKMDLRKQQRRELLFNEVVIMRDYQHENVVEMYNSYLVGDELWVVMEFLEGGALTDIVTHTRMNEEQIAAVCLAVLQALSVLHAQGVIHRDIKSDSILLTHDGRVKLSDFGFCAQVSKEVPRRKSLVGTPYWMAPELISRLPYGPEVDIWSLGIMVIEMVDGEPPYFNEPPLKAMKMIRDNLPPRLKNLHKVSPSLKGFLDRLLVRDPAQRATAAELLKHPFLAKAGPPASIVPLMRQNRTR
RAC-alpha serine/threonine-protein kinase (Homo sapiens), sequence (P31749 whole entry): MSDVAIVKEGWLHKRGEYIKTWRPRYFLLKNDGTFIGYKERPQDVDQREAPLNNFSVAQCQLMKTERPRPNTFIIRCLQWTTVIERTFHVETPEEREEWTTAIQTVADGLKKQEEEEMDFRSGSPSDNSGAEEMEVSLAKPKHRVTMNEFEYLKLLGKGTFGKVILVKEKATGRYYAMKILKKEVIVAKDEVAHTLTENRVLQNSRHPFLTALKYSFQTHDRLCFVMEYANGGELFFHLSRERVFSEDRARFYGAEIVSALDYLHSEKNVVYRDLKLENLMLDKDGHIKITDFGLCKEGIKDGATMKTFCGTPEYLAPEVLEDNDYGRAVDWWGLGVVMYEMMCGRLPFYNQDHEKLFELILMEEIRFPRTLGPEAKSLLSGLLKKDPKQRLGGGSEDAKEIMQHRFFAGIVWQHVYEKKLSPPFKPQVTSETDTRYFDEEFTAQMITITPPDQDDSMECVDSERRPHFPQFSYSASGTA
Mitogen-activated protein kinase 9 (Homo sapiens), sequence (P45984 whole entry, looked up): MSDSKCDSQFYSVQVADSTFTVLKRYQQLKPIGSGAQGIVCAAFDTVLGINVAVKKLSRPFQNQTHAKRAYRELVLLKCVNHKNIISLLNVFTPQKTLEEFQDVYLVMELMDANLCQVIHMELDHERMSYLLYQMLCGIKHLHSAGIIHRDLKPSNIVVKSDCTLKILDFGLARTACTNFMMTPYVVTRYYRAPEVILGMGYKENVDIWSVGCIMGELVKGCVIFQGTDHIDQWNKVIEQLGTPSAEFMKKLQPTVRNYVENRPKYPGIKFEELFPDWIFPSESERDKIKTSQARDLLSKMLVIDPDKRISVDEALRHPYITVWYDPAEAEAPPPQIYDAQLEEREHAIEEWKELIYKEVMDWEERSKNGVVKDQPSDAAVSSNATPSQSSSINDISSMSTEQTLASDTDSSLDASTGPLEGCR
Serine/threonine-protein kinase Chk1 (Homo sapiens), sequence (O14757 whole entry): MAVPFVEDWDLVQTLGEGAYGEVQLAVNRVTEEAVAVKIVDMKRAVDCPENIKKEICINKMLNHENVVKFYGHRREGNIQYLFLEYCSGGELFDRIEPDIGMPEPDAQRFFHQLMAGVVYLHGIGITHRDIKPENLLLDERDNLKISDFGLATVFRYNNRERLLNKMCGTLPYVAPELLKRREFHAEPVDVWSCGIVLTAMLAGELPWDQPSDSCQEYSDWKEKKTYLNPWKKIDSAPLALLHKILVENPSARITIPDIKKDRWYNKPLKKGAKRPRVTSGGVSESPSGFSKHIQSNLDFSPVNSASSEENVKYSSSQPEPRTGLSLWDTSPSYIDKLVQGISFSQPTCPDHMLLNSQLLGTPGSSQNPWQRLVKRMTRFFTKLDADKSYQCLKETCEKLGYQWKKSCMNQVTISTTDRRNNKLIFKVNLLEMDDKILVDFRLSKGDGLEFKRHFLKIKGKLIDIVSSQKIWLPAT

What does the source list for `CN(C)CCCC(=O)Nc1ccc2nccc(Nc3cccc(Br)c3)c2c1`?
Activity [1]: 70%; Activity [2]: 74%; Activity [3]: 75%; Activity [4]: 75%; Activity [5]: 76%; Activity [6]: 79%; Activity [7]: 79%; Activity [8]: 82%; Activity [9]: 83%; Activity [10]: 83%; Activity [11]: 84%; Activity [12]: 85%; Activity [13]: 86%; Activity [14]: 89%; Activity [15]: 89%; Activity [16]: 94%; Activity [17]: 95%; Activity [18]: 96%; Activity [19]: 100%; Activity [20]: 10%; Activity [21]: 14%; Activity [22]: 25%; Activity [23]: 26%; Activity [24]: 30%; Activity [25]: 32%; Activity [26]: 36%; Activity [27]: 49%; Activity [28]: 50%; Activity [29]: 61%; Activity [30]: 62%; GI50 [31]: < 500 nM; GI50 [32]: < 500 nM; GI50 [33]: < 500 nM; GI50 [34]: < 500 nM

What does the source list for `CN(C)CCCC(=O)Nc1ccc2ncnc(Nc3cccc(Br)c3)c2c1`?
Activity [1]: 81%; Activity [2]: 66%; Activity [3]: 62%; Activity [4]: 87%; Activity [5]: 79%; Activity [6]: 83%; Activity [7]: 87%; Activity [8]: 93%; Activity [9]: 70%; Activity [10]: 79%; Activity [11]: 89%; Activity [12]: 86%; Activity [13]: 86%; Activity [14]: 72%; Activity [15]: 96%; Activity [16]: 103%; Activity [17]: 96%; Activity [18]: 106%; Activity [19]: 103%; Activity [20]: 10%; Activity [21]: 18%; Activity [22]: 49%; Activity [23]: 53%; Activity [24]: 63%; Activity [25]: 27%; Activity [26]: 29%; Activity [27]: 76%; Activity [28]: 77%; Activity [29]: 80%; Activity [30]: 72%; GI50 [31]: < 500 nM; GI50 [32]: < 500 nM; GI50 [33]: < 500 nM; GI50 [34]: < 500 nM
